Assay results taken from PubChem BioAssay AID2060906 (Molecular Pharmacology Branch, DTP, NCI, 2025).

Test system: 485176-168-R4-J1-PDC complex spheroid growth
Experiment: Anticancer human tumor 485176-168-R4-J1-PDC patient-derived pancreatic adenocarcinoma cell line growth inhibition [RAS]
Conditions: for IC50: curve of first compound; for viability, T/C: stronger effect = lower value
In short: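 Tumour cells grown as complex spheroids with HUVEC endothelial cells and mesenchymal stem cells, treated with RAS pathway inhibitor combinations. Each agent spans half-log steps from near clinical Cmax, or 10 microM where Cmax is unknown.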

[1] = second compound 0.00316 µM, first compound 0.000949 µM
[2] = second compound 0.00316 µM, first compound 0.003 µM
[3] = second compound 0.00316 µM, first compound 0.00949 µM
[4] = second compound 0.00316 µM, first compound 0.03 µM
[5] = second compound 0.00316 µM, first compound 0.0949 µM
[6] = second compound 0.00316 µM, first compound 0.3 µM
[7] = second compound 0.01 µM, first compound 0.000949 µM
[8] = second compound 0.01 µM, first compound 0.003 µM
[9] = second compound 0.01 µM, first compound 0.00949 µM
[10] = second compound 0.01 µM, first compound 0.03 µM
[11] = second compound 0.01 µM, first compound 0.0949 µM
[12] = second compound 0.01 µM, first compound 0.3 µM
[13] = second compound 0.0316 µM, first compound 0.000949 µM
[14] = second compound 0.0316 µM, first compound 0.003 µM
[15] = second compound 0.0316 µM, first compound 0.00949 µM
[16] = second compound 0.0316 µM, first compound 0.03 µM
[17] = second compound 0.0316 µM, first compound 0.0949 µM
[18] = second compound 0.0316 µM, first compound 0.3 µM
[19] = second compound 0.1 µM, first compound 0.000949 µM
[20] = second compound 0.1 µM, first compound 0.003 µM
[21] = second compound 0.1 µM, first compound 0.00949 µM
[22] = second compound 0.1 µM, first compound 0.03 µM
[23] = second compound 0.1 µM, first compound 0.0949 µM
[24] = second compound 0.1 µM, first compound 0.3 µM
[25] = second compound 0.316 µM, first compound 0.000949 µM
[26] = second compound 0.316 µM, first compound 0.003 µM
[27] = second compound 0.316 µM, first compound 0.00949 µM
[28] = second compound 0.316 µM, first compound 0.03 µM
[29] = second compound 0.316 µM, first compound 0.0949 µM
[30] = second compound 0.316 µM, first compound 0.3 µM
[31] = second compound 1 µM, first compound 0.000949 µM
[32] = second compound 1 µM, first compound 0.003 µM
[33] = second compound 1 µM, first compound 0.00949 µM
[34] = second compound 1 µM, first compound 0.03 µM
[35] = second compound 1 µM, first compound 0.0949 µM
[36] = second compound 1 µM, first compound 0.3 µM
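Further: spheroids exposed to compounds for seven days before readout.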
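Wherever viability, T/C is given: luminescence viability expressed relative to DMSO vehicle wells set as 100%.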

CC1(C)CCC(Nc2ncc(C(F)(F)F)c(-c3c[nH]c4c(P(C)(C)=O)c(C#N)ccc34)n2)CN1 (centres undefined) + C=CC(=O)N1CCN(c2nc(OCC3CCCN3C)nc3c(F)c(-c4nc(N)cc(C)c4C(F)(F)F)c(Cl)cc23)C(C)C1
IC50 (second compound 0.00316 µM): > 300 nM | IC50 (second compound 0.01 µM): 80.8 nM | IC50 (second compound 0.0316 µM): > 300 nM | IC50 (second compound 0.1 µM): 133 nM | IC50 (second compound 0.316 µM): 43.1 nM | IC50 (second compound 1 µM): 94.4 nM | viability, T/C [1]: 116% | viability, T/C [2]: 109% | viability, T/C [3]: 85.6% | viability, T/C [4]: 60% | viability, T/C [5]: 46.2% | viability, T/C [6]: 55.6% | viability, T/C [7]: 122% | viability, T/C [8]: 98.9% | viability, T/C [9]: 75.7% | viability, T/C [10]: 53.9% | viability, T/C [11]: 48.4% | viability, T/C [12]: 48.1% | viability, T/C [13]: 100% | viability, T/C [14]: 105% | viability, T/C [15]: 81.5% | viability, T/C [16]: 59.5% | viability, T/C [17]: 51% | viability, T/C [18]: 49.1% | viability, T/C [19]: 102% | viability, T/C [20]: 84.8% | viability, T/C [21]: 80.4% | viability, T/C [22]: 63.8% | viability, T/C [23]: 47.2% | viability, T/C [24]: 47.8% | viability, T/C [25]: 92.7% | viability, T/C [26]: 104% | viability, T/C [27]: 81% | viability, T/C [28]: 52% | viability, T/C [29]: 52.1% | viability, T/C [30]: 44.2% | viability, T/C [31]: 108% | viability, T/C [32]: 106% | viability, T/C [33]: 82.8% | viability, T/C [34]: 57% | viability, T/C [35]: 52.2% | viability, T/C [36]: 46.9%

CCc1c2c(nc3ccc(O)cc13)-c1cc3c(c(=O)n1C2)COC(=O)[C@]3(O)CC + C=CC(=O)N1CCN(c2nc(OCC3CCCN3C)nc3c(F)c(-c4nc(N)cc(C)c4C(F)(F)F)c(Cl)cc23)C(C)C1
IC50 (second compound 0.00316 µM): 13.3 nM | IC50 (second compound 0.01 µM): 13.7 nM | IC50 (second compound 0.0316 µM): 11.1 nM | IC50 (second compound 0.1 µM): 11.9 nM | IC50 (second compound 0.316 µM): 16.6 nM | IC50 (second compound 1 µM): 11.1 nM | viability, T/C [1]: 94.2% | viability, T/C [2]: 79.2% | viability, T/C [3]: 58.4% | viability, T/C [4]: 31.9% | viability, T/C [5]: 13.9% | viability, T/C [6]: 6.54% | viability, T/C [7]: 94% | viability, T/C [8]: 82.6% | viability, T/C [9]: 60.6% | viability, T/C [10]: 28.8% | viability, T/C [11]: 12.5% | viability, T/C [12]: 6.49% | viability, T/C [13]: 84.8% | viability, T/C [14]: 97.8% | viability, T/C [15]: 47.5% | viability, T/C [16]: 27.8% | viability, T/C [17]: 10.9% | viability, T/C [18]: 4.77% | viability, T/C [19]: 81.3% | viability, T/C [20]: 70.1% | viability, T/C [21]: 54.1% | viability, T/C [22]: 34.5% | viability, T/C [23]: 11.2% | viability, T/C [24]: 6.91% | viability, T/C [25]: 92.8% | viability, T/C [26]: 82.4% | viability, T/C [27]: 71.8% | viability, T/C [28]: 27% | viability, T/C [29]: 14% | viability, T/C [30]: 5.42% | viability, T/C [31]: 95.9% | viability, T/C [32]: 75% | viability, T/C [33]: 58.7% | viability, T/C [34]: 22.7% | viability, T/C [35]: 10.5% | viability, T/C [36]: 6.39%
